Assay results reported in PubChem BioAssay (NCI).
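48-hour exposure; five concentrations; linearly interpolated endpoints. TGI is the concentration that stops growth completely.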

Columns and labels:
Assay in all cases: DTP human tumour cell line panel, 48 h
786-0 renal = system: 786-0 renal
A498 renal = system: A498 renal
A549 NSCLC = system: A549 NSCLC
ACHN renal = system: ACHN renal
CAKI-1 renal = system: CAKI-1 renal
CCRF-CEM leukemia = system: CCRF-CEM leukemia
COLO 205 colon = system: COLO 205 colon
DLD-1 colon = system: DLD-1 colon
DMS 114 small cell lung = system: DMS 114 small cell lung
DMS 273 small cell lung = system: DMS 273 small cell lung
EKVX NSCLC = system: EKVX NSCLC
HCC-2998 colon = system: HCC-2998 colon
HCT-116 colon = system: HCT-116 colon
HCT-15 colon = system: HCT-15 colon
HL-60(TB) leukemia = system: HL-60(TB) leukemia
HOP-18 NSCLC = system: HOP-18 NSCLC
HOP-62 NSCLC = system: HOP-62 NSCLC
HOP-92 NSCLC = system: HOP-92 NSCLC
HT29 colon = system: HT29 colon
IGROV1 ovarian = system: IGROV1 ovarian
K-562 leukemia = system: K-562 leukemia
KM12 colon = system: KM12 colon
KM20L2 colon = system: KM20L2 colon
LXFL 529 NSCLC = system: LXFL 529 NSCLC
M14 melanoma = system: M14 melanoma
M19-MEL melanoma = system: M19-MEL melanoma
MALME-3M melanoma = system: MALME-3M melanoma
MOLT-4 leukemia = system: MOLT-4 leukemia
NCI-H226 lung = system: NCI-H226 lung
NCI-H23 lung = system: NCI-H23 lung
NCI-H460 lung = system: NCI-H460 lung
NCI-H522 lung = system: NCI-H522 lung
OVCAR-3 ovarian = system: OVCAR-3 ovarian
OVCAR-4 ovarian = system: OVCAR-4 ovarian
OVCAR-5 ovarian = system: OVCAR-5 ovarian
OVCAR-8 ovarian = system: OVCAR-8 ovarian
RPMI-8226 leukemia = system: RPMI-8226 leukemia
RXF-631 renal = system: RXF-631 renal
SF-268 CNS = system: SF-268 CNS
SF-295 CNS = system: SF-295 CNS
SF-539 CNS = system: SF-539 CNS
SK-MEL-28 melanoma = system: SK-MEL-28 melanoma
SK-MEL-5 melanoma = system: SK-MEL-5 melanoma
SK-OV-3 ovarian = system: SK-OV-3 ovarian
SN12C renal = system: SN12C renal
SNB-19 CNS = system: SNB-19 CNS
SNB-75 CNS = system: SNB-75 CNS
SNB-78 CNS = system: SNB-78 CNS
SW-620 colon = system: SW-620 colon
TK-10 renal = system: TK-10 renal
U251 CNS = system: U251 CNS
UACC-257 melanoma = system: UACC-257 melanoma
UACC-62 melanoma = system: UACC-62 melanoma
UO-31 renal = system: UO-31 renal
LOX IMVI melanoma = system: LOX IMVI melanoma
RXF 393 renal = system: RXF 393 renal
SK-MEL-2 melanoma = system: SK-MEL-2 melanoma

`O=C(CCc1n[nH]c(=S)o1)Nc1cc(Cl)c(Cl)cc1Cl` showed a TGI (786-0 renal) of 63.6 µM, a TGI (A498 renal) of 91.8 µM and a TGI (A549 NSCLC) of over 100 µM. The TGI (ACHN renal) was over 100 µM, the TGI (CAKI-1 renal) was over 100 µM and the TGI (CCRF-CEM leukemia) was over 100 µM. It also gave a TGI (COLO 205 colon) of over 100 µM, a TGI (DLD-1 colon) of 86.3 µM and a TGI (DMS 114 small cell lung) of over 100 µM. For the same compound, the TGI (DMS 273 small cell lung) was 72.5 µM, the TGI (EKVX NSCLC) was over 100 µM and the TGI (HCC-2998 colon) was over 100 µM. The TGI (HCT-116 colon) was 30 µM, the TGI (HCT-15 colon) was 49.9 µM and the TGI (HL-60(TB) leukemia) was over 100 µM. It also gave a TGI (HOP-18 NSCLC) of over 100 µM, a TGI (HOP-62 NSCLC) of over 100 µM and a TGI (HOP-92 NSCLC) of over 100 µM. The TGI (HT29 colon) was over 100 µM, the TGI (IGROV1 ovarian) was over 100 µM and the TGI (K-562 leukemia) was 49 µM. For the same compound, the TGI (KM12 colon) was over 100 µM, the TGI (KM20L2 colon) was over 100 µM and the TGI (LXFL 529 NSCLC) was over 100 µM. It also gave a TGI (M14 melanoma) of over 100 µM, a TGI (M19-MEL melanoma) of over 100 µM and a TGI (MALME-3M melanoma) of over 100 µM. The TGI (MOLT-4 leukemia) was over 100 µM, the TGI (NCI-H226 lung) was over 100 µM and the TGI (NCI-H23 lung) was over 100 µM. The TGI (NCI-H460 lung) was over 100 µM, the TGI (NCI-H522 lung) was over 100 µM and the TGI (OVCAR-3 ovarian) was over 100 µM. The TGI (OVCAR-4 ovarian) was over 100 µM, the TGI (OVCAR-5 ovarian) was over 100 µM and the TGI (OVCAR-8 ovarian) was over 100 µM. For the same compound, the TGI (RPMI-8226 leukemia) was 50.8 µM, the TGI (RXF-631 renal) was over 100 µM and the TGI (SF-268 CNS) was over 100 µM. The TGI (SF-295 CNS) was over 100 µM, the TGI (SF-539 CNS) was over 100 µM and the TGI (SK-MEL-28 melanoma) was over 100 µM. It also gave a TGI (SK-MEL-5 melanoma) of over 100 µM, a TGI (SK-OV-3 ovarian) of over 100 µM and a TGI (SN12C renal) of over 100 µM. The TGI (SNB-19 CNS) was over 100 µM, the TGI (SNB-75 CNS) was over 100 µM and the TGI (SNB-78 CNS) was over 100 µM. For the same compound, the TGI (SW-620 colon) was 31.4 µM, the TGI (TK-10 renal) was over 100 µM and the TGI (U251 CNS) was over 100 µM. It also gave a TGI (UACC-257 melanoma) of over 100 µM, a TGI (UACC-62 melanoma) of over 100 µM and a TGI (UO-31 renal) of over 100 µM.

`CC1CCCP(=O)(c2ccccc2)CC1` (stereo not drawn) gave a TGI (786-0 renal) of over 100 µM, a TGI (A498 renal) of over 100 µM and a TGI (A549 NSCLC) of over 100 µM. The TGI (ACHN renal) was over 100 µM, the TGI (CAKI-1 renal) was over 100 µM and the TGI (CCRF-CEM leukemia) was over 100 µM. It also gave a TGI (COLO 205 colon) of over 100 µM, a TGI (DLD-1 colon) of over 100 µM and a TGI (DMS 114 small cell lung) of over 100 µM. The TGI (DMS 273 small cell lung) was over 100 µM, the TGI (EKVX NSCLC) was over 100 µM and the TGI (HCC-2998 colon) was over 100 µM. For the same compound, the TGI (HCT-15 colon) was over 100 µM, the TGI (HOP-18 NSCLC) was 0.958 µM and the TGI (HOP-62 NSCLC) was over 100 µM. It also gave a TGI (HT29 colon) of over 100 µM, a TGI (IGROV1 ovarian) of over 100 µM and a TGI (K-562 leukemia) of over 100 µM. For the same compound, the TGI (KM12 colon) was over 100 µM, the TGI (KM20L2 colon) was over 100 µM and the TGI (LOX IMVI melanoma) was over 100 µM. The TGI (LXFL 529 NSCLC) was over 100 µM, the TGI (M14 melanoma) was over 100 µM and the TGI (M19-MEL melanoma) was over 100 µM. It also gave a TGI (MALME-3M melanoma) of over 100 µM, a TGI (MOLT-4 leukemia) of over 100 µM and a TGI (NCI-H23 lung) of over 100 µM. It also gave a TGI (NCI-H460 lung) of over 100 µM, a TGI (OVCAR-3 ovarian) of over 100 µM and a TGI (OVCAR-4 ovarian) of over 100 µM. The TGI (OVCAR-5 ovarian) was over 100 µM, the TGI (OVCAR-8 ovarian) was over 100 µM and the TGI (RPMI-8226 leukemia) was over 100 µM. For the same compound, the TGI (RXF 393 renal) was over 100 µM, the TGI (RXF-631 renal) was over 100 µM and the TGI (SF-268 CNS) was over 100 µM. It also gave a TGI (SF-295 CNS) of over 100 µM, a TGI (SF-539 CNS) of over 100 µM and a TGI (SK-MEL-2 melanoma) of over 100 µM. For the same compound, the TGI (SK-MEL-28 melanoma) was over 100 µM, the TGI (SK-MEL-5 melanoma) was over 100 µM and the TGI (SK-OV-3 ovarian) was over 100 µM. The TGI (SN12C renal) was over 100 µM, the TGI (SNB-19 CNS) was over 100 µM and the TGI (SNB-75 CNS) was over 100 µM. It also gave a TGI (SNB-78 CNS) of over 100 µM, a TGI (SW-620 colon) of over 100 µM and a TGI (TK-10 renal) of over 100 µM. For the same compound, the TGI (U251 CNS) was over 100 µM, the TGI (UACC-257 melanoma) was over 100 µM and the TGI (UACC-62 melanoma) was over 100 µM. For the same compound, the TGI (UO-31 renal) was over 100 µM.

Work on `CCOCc1cc(=O)c2c(O)cc3c(c2o1)CCC(C)(C)O3` yielded a TGI (A498 renal) of over 100 µM, a TGI (ACHN renal) of over 100 µM and a TGI (CAKI-1 renal) of over 100 µM. It also gave a TGI (CCRF-CEM leukemia) of over 100 µM, a TGI (COLO 205 colon) of over 100 µM and a TGI (DLD-1 colon) of over 100 µM. The TGI (DMS 114 small cell lung) was over 100 µM, the TGI (DMS 273 small cell lung) was over 100 µM and the TGI (EKVX NSCLC) was over 100 µM. It also gave a TGI (HCT-15 colon) of over 100 µM, a TGI (HL-60(TB) leukemia) of over 100 µM and a TGI (HOP-18 NSCLC) of over 100 µM. The TGI (HOP-92 NSCLC) was over 100 µM, the TGI (HT29 colon) was over 100 µM and the TGI (IGROV1 ovarian) was over 100 µM. For the same compound, the TGI (K-562 leukemia) was over 100 µM, the TGI (KM20L2 colon) was over 100 µM and the TGI (LOX IMVI melanoma) was over 100 µM. It also gave a TGI (LXFL 529 NSCLC) of over 100 µM, a TGI (M14 melanoma) of over 100 µM and a TGI (M19-MEL melanoma) of over 100 µM. For the same compound, the TGI (MALME-3M melanoma) was over 100 µM, the TGI (MOLT-4 leukemia) was over 100 µM and the TGI (NCI-H226 lung) was over 100 µM. For the same compound, the TGI (NCI-H23 lung) was over 100 µM, the TGI (NCI-H460 lung) was over 100 µM and the TGI (NCI-H522 lung) was over 100 µM. For the same compound, the TGI (OVCAR-3 ovarian) was over 100 µM, the TGI (OVCAR-8 ovarian) was over 100 µM and the TGI (RPMI-8226 leukemia) was over 100 µM. It also gave a TGI (RXF-631 renal) of over 100 µM, a TGI (SF-268 CNS) of over 100 µM and a TGI (SF-295 CNS) of over 100 µM. It also gave a TGI (SF-539 CNS) of over 100 µM, a TGI (SK-MEL-2 melanoma) of over 100 µM and a TGI (SK-MEL-28 melanoma) of over 100 µM. It also gave a TGI (SK-MEL-5 melanoma) of over 100 µM, a TGI (SK-OV-3 ovarian) of over 100 µM and a TGI (SN12C renal) of over 100 µM. The TGI (SNB-19 CNS) was over 100 µM, the TGI (SNB-75 CNS) was over 100 µM and the TGI (SNB-78 CNS) was over 100 µM. It also gave a TGI (SW-620 colon) of over 100 µM, a TGI (TK-10 renal) of over 100 µM and a TGI (U251 CNS) of over 100 µM. For the same compound, the TGI (UACC-62 melanoma) was over 100 µM and the TGI (UO-31 renal) was over 100 µM.
